# In PubChem BioAssay AID328 (DTP/NCI, 2004):
# Toxic doses and inconclusive results are not listed.
# Tested on: BDF1 mice, P388 leukemia ip, median survival T/C
# Test: NCI In Vivo Anticancer Drug Screen. Data for tumor model P388 Leukemia (intraperitoneal) in B6D2F1 (BDF1) mice
# Conditions: endpoint: median survival time, higher = longer survival
# Procedure, shortened: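 Mice carrying the transplantable tumour receive compound or vehicle. Survival is followed in each arm, and the treated measure is divided by the vehicle measure.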
# [1] = dose: 100.0 mg/kg/injection, schedule: Q01DX001 (ip), vehicle: Klucel (hydroxypropylcellulose) (HPC)
# [2] = dose: 100.0 mg/kg/injection, schedule: Q04DX003 (ip), vehicle: Klucel (hydroxypropylcellulose) (HPC)
# [3] = dose: 200.0 mg/kg/injection, schedule: Q01DX001 (ip), vehicle: Klucel (hydroxypropylcellulose) (HPC)
# [4] = dose: 200.0 mg/kg/injection, schedule: Q04DX003 (ip), vehicle: Klucel (hydroxypropylcellulose) (HPC)
# [5] = dose: 400.0 mg/kg/injection, schedule: Q01DX001 (ip), vehicle: Klucel (hydroxypropylcellulose) (HPC)
# [6] = dose: 400.0 mg/kg/injection, schedule: Q04DX003 (ip), vehicle: Klucel (hydroxypropylcellulose) (HPC)
# [7] = dose: 12.5 mg/kg/injection, schedule: Q01DX009 (ip), vehicle: saline with Tween-80
# [8] = dose: 25.0 mg/kg/injection, schedule: Q01DX009 (ip), vehicle: saline with Tween-80
# [9] = dose: 50.0 mg/kg/injection, schedule: Q01DX009 (ip), vehicle: saline with Tween-80
# [10] = dose: 50.0 mg/kg/injection, schedule: Q01DX009 (ip), vehicle: saline
# [11] = dose: 100.0 mg/kg/injection, schedule: Q01DX009 (ip), vehicle: saline
# [12] = dose: 100.0 mg/kg/injection, schedule: Q01DX009 (ip), vehicle: saline with Tween-80
# [13] = dose: 200.0 mg/kg/injection, schedule: Q01DX009 (ip), vehicle: saline with Tween-80
# [14] = dose: 200.0 mg/kg/injection, schedule: Q01DX009 (ip), vehicle: Klucel (hydroxypropylcellulose) (HPC)
# [15] = dose: 400.0 mg/kg/injection, schedule: Q01DX009 (ip), vehicle: Klucel (hydroxypropylcellulose) (HPC)
smiles,measurement,setting,value
COc1ccc(C=O)c(Cl)c1OC,T/C,"dose: 12.0 mg/kg/injection, schedule: Q04DX003 (ip), vehicle: Klucel (hydroxypropylcellulose) (HPC)",90 % of control
same,T/C,"dose: 25.0 mg/kg/injection, schedule: Q04DX003 (ip), vehicle: Klucel (hydroxypropylcellulose) (HPC)",100 % of control
same,T/C,"dose: 50.0 mg/kg/injection, schedule: Q04DX003 (ip), vehicle: Klucel (hydroxypropylcellulose) (HPC)",95 % of control
same,T/C,[1],113 % of control
same,T/C,[2],109 % of control
same,T/C,[3],109 % of control
same,T/C,[4],104 % of control
same,T/C,[5],113 % of control
O=C(O)Cc1ccc(N=Nc2c(O)c(C(=O)O)cc3ccccc23)cc1,T/C,[2],111 % of control
same,T/C,[4],111 % of control
same,T/C,[6],100 % of control
O/N=C(\c1ccccc1)c1ccccn1,T/C,[7],96 % of control
same,T/C,[8],90 % of control
same,T/C,[9],96 % of control
COc1ccccc1C(c1ccccc1OC)N(C)C(C)(C)CO,T/C,"dose: 6.25 mg/kg/injection, schedule: Q01DX009 (ip), vehicle: saline with Tween-80",100 % of control
same,T/C,[7],91 % of control
same,T/C,[8],91 % of control
NC(Cn1ccc(=O)c(O)c1)C(=O)O (stereo not drawn),T/C,[10],95 % of control
same,T/C,[11],100 % of control
same,T/C,"dose: 200.0 mg/kg/injection, schedule: Q01DX009 (ip), vehicle: saline",108 % of control
same,T/C,"dose: 400.0 mg/kg/injection, schedule: Q01DX009 (ip), vehicle: saline",122 % of control
COc1ccc(NC2=NCCS2)cc1,T/C,[9],109 % of control
same,T/C,[12],104 % of control
CCCCCCNP(=O)(N1CC1)N1CC1,T/C,"dose: 16.5 mg/kg/injection, schedule: Q04DX003 (ip), vehicle: saline with Tween-80",168 % of control
same,T/C,"dose: 25.0 mg/kg/injection, schedule: Q04DX003 (ip), vehicle: saline with Tween-80",227 % of control
same,T/C,"dose: 37.5 mg/kg/injection, schedule: Q04DX003 (ip), vehicle: saline with Tween-80",272 % of control
N#Cc1ccc(CC(O)c2ccc(Cl)cc2)cc1 (stereo not drawn),T/C,[9],108 % of control
same,T/C,[12],89 % of control
same,T/C,[13],96 % of control
S=C(NNc1ccccc1)NC1CCCCC1,T/C,[1],100 % of control
same,T/C,"dose: 100.0 mg/kg/injection, schedule: Q01DX009 (ip), vehicle: Klucel (hydroxypropylcellulose) (HPC)",86 % of control
same,T/C,[2],110 % of control
same,T/C,[3],100 % of control
same,T/C,[14],90 % of control
same,T/C,[4],105 % of control
same,T/C,[5],104 % of control
same,T/C,[15],100 % of control
same,T/C,[6],110 % of control
CC(/C=C/C=C/c1ccccc1)=N\O,T/C,[14],90 % of control
same,T/C,[15],95 % of control
CNC(=O)O/N=C(\CN=[N+]=[N-])C(C)(C)C,T/C,"dose: 0.2 mg/kg/injection, schedule: Q01DX009 (ip), vehicle: saline",92 % of control
same,T/C,"dose: 0.39 mg/kg/injection, schedule: Q01DX009 (ip), vehicle: saline",88 % of control
same,T/C,"dose: 0.78 mg/kg/injection, schedule: Q01DX009 (ip), vehicle: saline",122 % of control
Cc1ncnc2c1CCC2,T/C,[9],97 % of control
same,T/C,[12],111 % of control
same,T/C,"dose: 100.0 mg/kg/injection, schedule: Q04DX003 (ip), vehicle: saline with Tween-80",109 % of control
same,T/C,[13],87 % of control
same,T/C,"dose: 200.0 mg/kg/injection, schedule: Q04DX003 (ip), vehicle: saline with Tween-80",95 % of control
Nc1nc2ccccc2[nH]1,T/C,[10],105 % of control
same,T/C,[11],102 % of control
COC1c2cnc(C)n2C=CN1C(C)=O (stereo not drawn),T/C,"dose: 100.0 mg/kg/injection, schedule: Q04DX003 (ip), vehicle: saline",99 % of control
same,T/C,"dose: 200.0 mg/kg/injection, schedule: Q04DX003 (ip), vehicle: saline",104 % of control
same,T/C,"dose: 300.0 mg/kg/injection, schedule: Q04DX003 (ip), vehicle: saline",94 % of control
